Data on one substance can be found in patent US20250269050A1, “CYCLIC DICHALCOGENIDE ADC LINKER UNITS AND USES THEREOF” (priority 2024, published 2025).

Data set [1] is described as follows: In vivo pharmacokinetics experiment in mice (intact immunoconjugate in plasma, MS-based). The conditions noted are these: single 7 mg/kg intravenous injection, plasma up to 380 h, FIG. 3. How it is done: Mice are maintained in individually ventilated cages at constant temperature (22±2° C., air-conditioned) and humidity (45-65%), under optimum hygienic conditions with 10-15 air changes per hour. A cycle of 12 h artificial fluorescent lightning and 12 h darkness is applied and animal behavior is monitored daily throughout the study. The mice receive food and water ad libitum.
To study the in vivo disposition of molecules of the invention mice are treated once with 6, 7 or commercial Trodelvy® at a dose of 7 mg/kg by intravenous injection. Plasma samples are collected at the following time points: predose, postdose: 2 min, 6 h, 24 h, 48 h, 72 h, 168 h, 240 h, and 380 h. All samples are analyzed using an MS-based analytical method for quantification of the intact immunoconjugates and of the free molecular cargo in the mouse plasma.

The test system of data set [2] is Trop-2-positive breast cancer cancer cell line. Nature of the data set: Anti-cancer efficacy study in mice, Trop-2-positive cancer model. It is filed as in vivo. The conditions noted are these: single treatment at day 7, 3 mg/kg intravenous.

With Trodelvy®, in data set [1], the “intact immunoconjugate in mouse plasma over time” value was “fast and significant loss of intact immunoconjugate”. In addition, in data set [2] (FIG. 4), the “tumor growth compared to the vehicle group” value is “strong suppression of tumor growth”. Also, the “duration of tumor response” value in data set [2] (up to day 57, FIG. 4) is on record as “tumors significantly start to grow again after day 30”.
